Reference: patent US7659273B2, “Composition for accelerating bone fracture healing” (Mitsubishi Tanabe Pharma Corporation, priority 2001, dated 2010)

What was measured:
[1] = system: fibula fracture region of streptozotocin-induced diabetic rats; test: Acceleration of fracture healing in diabetic rat (Experimental Example 7); assay type: in vivo; conditions: Example 7-(1) microspheres; for Bone mineral content: 6 weeks after sutura, DXA at fracture region; for Breaking Energy / Breaking force: 6 weeks, three-point bending test
Protocol: CD (SD) IGS rats (Charles River Japan, Inc.; male; 7-week-old) were housed for seven days at room temperature (23±2° C.) and 55±15% humidity. During the housing period, the rats were free to access commercially available food (from Oriental Bio Service; CRF-1).
Streptozotocin (Sigma), which induce diabetes, was dissolved in citrate-buffered saline (pH 4.5) to obtain 0.05 M streptozocin solution and injected intravenously to each rat at 60 mg/kg. One week later, blood was collected from tail end and blood-glucose level was determined with a blood-glucose monitor (Molecular Devices; M-SPmax250). Based on the measurements, rats were divided into groups so that a significant difference in glucose level may not occur among groups. The average blood-glucose level was from 426.12 to 428.23 mg/dl.
Under ether anesthesia, the left-lower legs of rats were shaved and sterilized with 70% aqueous ethanol, fibulas were exposed with scissors and cut with nail scissors (Natsume Seisakusyo; B17). The cut sections of the fibula were re-matched with tweezers. For the test groups (12 rats/group), the drug-containing microspheres prepared in Example 7-(1), which contains 0.03 or 0.1 mg of Compound (2), were placed around the cutting site using spatula followed by suturing with silk thread. For the control group (12 rats/group), the same amount of drug-free microspheres prepared in Control Example 2 were placed around the cutting site using spatula followed by suturing with silk thread. Following the suturing, every animal was sterilized with 70% aqueous ethanol. After six weeks from the sutura, under ether anesthesia, rats were sacrificed by laparotomy with bleeding, and the fibulas were excised.
Eight fibulas were randomly selected from those excised at 6 weeks after sutura and subjected to DXA bone densitometer (from Aloka; DCS-600) to determine bone mineral density and bone mineral content at fracture region, (scanning width: 1 mm).
The fibula used in the determination of mineral content was subjected to a three-point bending test with bone strength tester (from Muromachi Kikai Co., Ltd.; TK-252C) to determine bone strength. Briefly, the fibula was supported by two supports apart from each other by 8 mm and the cut section was positioned at the middle of these supports, i.e., 4 mm apart from the respective two supports. Loading (3 mm/minute) from upper direction was kept on the middle point (fracture section) of fibula until fibula begins to fracture. The maximum pressure necessary to break the bone was defined as the breaking force. The total energy spent to break the bone was defined as the breaking energy.
Four fibulas excised at 6 weeks after sutura was photographed with micro focus magnification radiography system (Fuji Photo Film Co. Ltd.; μFX-1000; tube voltage: 25 kV; tube current: […]; 20 seconds).

[2] = system: rabbit costicartilage cells; test: Cartilage matrix (proteoglycan) production, Alcian blue staining (Experimental Examples 3 and 4); assay type: cell-based; conditions: summary of Tables 10 and 11
Excerpt: Costicartilages were isolated from NZ line rabbit (Kitayama Labes., Co Ltd.; male; 4-week-old) and soaked into Hank's balanced salt solution (calcium- and magnesium-free; LifeTech Co., Ltd.; hereinafter, referred to as “HBSS”). One costicartilage and one costa were excised together, the adipose tissue and the muscle tissue were removed and then, the proliferating chondrocyte layer of costicartilage was excised. The collected proliferating chondrocyte layer was cut into sections with a surgical knife (FEATHER Safety Razor Co., Ltd.) and the all proliferating chondrocyte layer sections from 4 rabbits were combined in a centrifuge tube. To the centrifuge tube was added 40 ml of HBSS (pH 7.2) supplied with 0.1% tetrasodium ethylenediamine tetraacetate to obtain suspension of the proliferating chondrocyte layer sections, which was shaken at 37° C. for 20 minutes and centrifuged (1500 rpm, 10 minutes). The supernatant was aspirated off, and 40 ml of HBSS (pH 7.2) supplied with 0.2% trypsin was added to the tube to suspend the precipitates and shaken at 37° C. for 1 hour. The tube was centrifuged (1500 rpm, 10 minutes), and the supernatant was aspirated off. The precipitates were washed twice with HBSS, suspended in 100 ml of HBSS supplied with 0.1% collagenase (Wako Pure Chemical Industries, Ltd., 034-10533) and shaken at 37° C. for 3 hours. The content of the tube was passed through the Cell Strainer (pore size 40 μm) and the filtrate was divided into four centrifuge tubes. To each of all four tubes was added 40 ml of medium (α-MEM, LifeTech Co., Ltd.), and the tubes were centrifuged (1500 rpm, 10 minutes). The supernatant was aspirated off, and the resultant precipitates were collected in one tube with Pipetman. After addition of 40 ml of the same medium, the tube was re-centrifuged (1500 rpm, 10 minutes). Washing procedure comprising addition of medium followed by centrifugation was repeated additional three times. The precipitates were suspended in the same medium to give an about 5 ml suspension, and the cell number was counted.
The suspension of costicartilage cell described above was added to 24-well plate at 50,000 cells per well (day 1). […]
After removing the medium, cells in each well were fixed by addition of 1 ml of neutral buffer containing 4% paraformaldehyde and incubation for 30 minutes at room temperature. […] Absorbance at 620 nm was measured, and cartilage matrix amount (proteoglycan production amount) in each well was estimated, and proteoglycan production rate (%) of each test compound for vehicle (100%) was calculated.
The cartilage matrix (proteoglycan) production was determined using other compounds (compounds (52)-(55) and Compound (2) for comparison) in exactly the same manner as Experimental Example 3 above.

SMILES: CCOc1cc2cc(CO)c(CO)c(-c3ccnc(-n4nc(-c5cccnc5)c5ccccc5c4=O)c3)c2cc1OCC [Compound (2)]
- Bone mineral content ([1]; drug content 0.03 mg): 13.69 ± 0.96 mg
- Breaking Energy ([1]; drug content 0.03 mg): 1.53 ± 0.39 mJ
- Breaking force ([1]; drug content 0.03 mg): 8.13 ± 1.20 N
- Bone mineral content ([1]; drug content 0.1 mg): 14.60 ± 0.69 mg
- Breaking Energy ([1]; drug content 0.1 mg): 2.91 ± 0.82 mJ
- Breaking force ([1]; drug content 0.1 mg): 11.75 ± 2.14 N
- cartilage matrix (proteoglycan) production promoting effect (in words) [2]: remarkable matrix production promoting effect
